# In patent publication US8168638B2, “Pyrazinecarboxamide derivatives and plant disease controlling agents containing the same” (Nihon Nohyaku Co., Ltd., priority 2005, dated 2012):
# Test system: Blumeria graminis f. sp. hordei
# Assay: Test on the controlling effect against powdery mildew of barley plant
# Assay type: in vivo
# Conditions: barley plant (Kantoh No. 6), foliar application, active-ingredient concentration 200 ppm, application rate 50 mL, 7 days after inoculation
# Source text: Equation (1): Protective value (%)=A/B×100 (1) where: • A; [(Ratio of the afflicted spotted leaf surface area in non-treated section to the total leaf surface area)−(Ratio of the afflicted spotted leaf surface area in treated section to the total leaf surface area)] • B; (Ratio of the afflicted spotted leaf surface area in non-treated section to the total leaf surface area) Criteria of Judgment: 0: Less than […] in protective value 1: 10 to 19% in protective value 2: 20 to 29% in protective value 3: 30 to 39% in protective value 4: 40 to 49% in protective value 5: 50 to 59% in protective value 6: 60 to 69% in protective value 7: 70 to 79% in protective value 8: 80 to 89% in protective value 9: 90 to 99% in protective value 10: 100% in protective value A one-leaf aged barley plant (the cultivar: Kantoh No. 6) raised as a seedling in a pot of 6 cm in diameter was subjected to foliar application with a diluted emulsion of the emulsifiable concentrate of the compound of the present invention prepared in accordance with Agrochemical Formulation Example 1, which diluted emulsion was produced by diluting the concentrate with water to the specifically determined volume. […] Seven days after the inoculation, the controlling effect was assessed according the criteria of judgment as set forth in Test Example 1.
structure (smiles),measurement,value
"O=C(Nc1ccccc1-c1ccc(Cl)cc1)c1cccnc1Cl [Control Compound C, 2-Chloro-N-(4′-chlorobiphenyl-2-yl)-nicotinamide]",controlling effect assessed according to the criteria of judgment,4 (40 to 49% in protective value)
